The test system of test [1] is Human coronary artery endothelial (HCAE) cells. Nature of the test: Migration of HCAE cells through fibronectin-coated insert toward PDGF. Format: cell-based. The following applies: PDGF 10 ng/ml, 22 h. The procedure:
(§1) The design of experiments to measure invasion and migration of endothelial cells toward the angiogenic factor PDGF (platelet-derived growth factor-BB) is shown in FIGS. 7A and 8A respectively. The standard assay used 5×10^4 cells added to the top of the insert in 250 μl of medium. The lower portion of the apparatus contained 750 μl of medium, plus or minus PDGF. […] Transmembrane cell invasion and migration assays were performed using BD FluoroBlok inserts coated with BD Matrigel Matrix (a biologically active basement membrane preparation) or with fibronectin (BD Bioscience, Bedford, Mass.), respectively. […] PDGF [10 ng/ml] (R&D System, Minneapolis, Minn. (PDGF) or medium alone (CTR) were added to the lower chamber of the insert plate as a chemoattractant. The cells were allowed to invade or migrate for 22 hours. Cells were labeled post invasion or post migration with Calcein AM (4 μg/ml) and the fluorescence of the cells that invaded through the BD Matrigel Matrix or migrated to the underside of the insert membrane was measured using a plate reader at 485 nm (excitation) and 530 nm (emission).

The test system is the same in test [2]. Nature of the test: Invasion of HCAE cells through Matrigel toward PDGF. In kind it is cell-based. The following applies: PDGF 10 ng/ml, 22 h. The procedure:
as §1

For test [3] the test system is unchanged. The test can be described thus: Invasion of HCAE cells through Matrigel toward bFGF. In kind it is cell-based. The conditions noted are these: bFGF 10 ng/ml, 22 h. The procedure:
(§2) The design of experiments to measure invasion and migration of endothelial cells toward the angiogenic factor bFGF (basic fibroblast growth factor) is shown in FIGS. 5A and 6A, respectively. The standard assay used 5×10^4 cells added to the top of the insert in 250 μl of medium. The lower portion of the apparatus contained 750 μl of medium, plus or minus bFGF. […] Transmembrane cell invasion and migration assays were performed using BD FluoroBlok (BD Bioscience, Bedford, Mass.) inserts coated with BD Matrigel Matrix (a biologically active basement membrane preparation) or with fibronectin, respectively. […] (R&D System, Minneapolis, Minn.) (FGF) or medium alone (CTR) were added to the lower chamber of the insert plate as a chemoattractant. The cells were allowed to invade or migrate for 22 hours. Cells were labeled post invasion or post migration with Calcein AM (4 μg/ml) and the fluorescence of the cells that invaded through the BD Matrigel Matrix or migrated to the underside of the insert membrane was measured using a plate reader at 485 nm (excitation) and 530 nm (emission).

For test [4] the test system is unchanged. Nature of the test: Migration of HCAE cells through fibronectin-coated insert toward bFGF. Format: cell-based. The following applies: bFGF 10 ng/ml, 22 h. How it is done:
as §2

The subject of test [5] is thrombin receptor. The following applies: cited from earlier work.
In test [6] the test system is thrombin receptor. The conditions noted are these: cited from earlier work. This is another data set of the same source.
For another test, the system named is AC-23. The test can be described thus: Binding of biotin-conjugated thrombin to complementary peptide AC-23.
AC-23, sequence (as listed by the source): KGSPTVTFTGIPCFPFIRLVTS
For a further test, the system named is 23C53. Nature of the test: Binding of biotin-conjugated thrombin to complementary peptide 23C53.
23C53, sequence (as listed by the source): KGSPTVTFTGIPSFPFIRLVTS

We go through five substances from US20100330028A1, “COMBINATION THERAPY FOR CHRONIC DERMAL ULCERS” (The Board of Regents THe Universityof Texas System, priority 2007, published 2010).

With PDGF, the “Effect of PDGF on endothelial cell migration compared to control (CTR)” value in test [1] is listed as “no effect”. Besides, the “Effect of PDGF on endothelial cell invasion compared to control medium without PDGF” value in test [2] is on record as “no effect”.

As to “bFGF: angiogenic factor basic fibroblast growth factor (R&D System)”, the “bFGF-induced endothelial cell invasion as % of invasion with control medium (CTR)” value in test [3] is listed as about 170%. In test [4], the “Increase of endothelial cell migration by bFGF compared to control medium not containing bFGF” value is reported as about 40%.

On to “p508-530: stimulatory thrombin polypeptide derivative containing fibronectin- and serine protease-homologous domains, residues 508 to 530 of human thrombin”, for which the “Binding to thrombin receptors” value with thrombin receptor [5] is given as “bind to thrombin receptors with high-affinity”. Besides, the “Induction of mitogenesis / mitogenic signals” value with thrombin receptor [6] was “substitute for DIP-alpha-thrombin as an initiator of receptor occupancy-related mitogenic signals”.

As to “p519-530: intermediate thrombin peptide derivative, residues 519-530 of human thrombin (QPSVLQVVNLPI; UniProt P00734 519-530, looked up, fragment)”, the “Induction of mitogenesis / mitogenic signals” value in the test with thrombin receptor [6] is “retains the ability to mediate mitogenesis but to a much lesser degree than p508-530”.

As to thrombin, in the test on AC-23, the “Specific binding of biotin-conjugated thrombin to AC23” value is “bind specifically”. In the test on 23C53, the “Specific binding of biotin-conjugated thrombin to 23C53” value was “bind specifically”.
